Biological target: human HPK1 (MAP4K1) (Homo sapiens (Human), UniProt Q92918)
Test: HPK1 IC50 Assay (TR-FRET peptide phosphorylation)
Format: biochemical
Details: 0.15 nM HPK1, 10 μM ATP, 1 μM STK S1 peptide substrate; geometric mean
Procedure, shortened: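 Pre-activated, dually phosphorylated baculovirus-expressed HPK1 kinase domain (0.15 nM) preincubated 15 min with compound, then reacted 3 h at 25° C with 10 μM ATP and 1 μM STK S1 peptide in BES pH 7.0 buffer. Phosphopeptide read by TR-FRET (665/620 nm); four-parameter fit, geometric-mean IC50.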

human HPK1 (MAP4K1), sequence (Q92918 17-274): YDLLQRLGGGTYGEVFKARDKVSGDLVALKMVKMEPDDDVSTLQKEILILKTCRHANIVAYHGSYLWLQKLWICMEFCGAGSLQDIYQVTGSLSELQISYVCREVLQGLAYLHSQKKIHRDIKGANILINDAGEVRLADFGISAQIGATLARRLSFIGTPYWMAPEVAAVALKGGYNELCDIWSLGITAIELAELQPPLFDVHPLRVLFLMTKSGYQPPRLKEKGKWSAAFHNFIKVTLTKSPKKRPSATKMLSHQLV

Row | IC50 | Compound
1 | 0.07 nM | CCNC(=O)c1cc(Nc2nc(-c3ccc4c(c3)N([C@H]3C[C@@](C)(N5CCCCC5)C3)C(=O)C4(C)C)cc3ncn(C(C)C)c23)c(F)cc1Cl [Example 290, 2-chloro-5-((6-(3,3-dimethyl-1-((1s,3s)-3-methyl-3-(piperidin-1-yl)cyclobutyl)-2-oxoindolin-6-yl)-3-isopropyl-3H-imidazo[4,5-c]pyridin-4-yl)amino)-N-ethyl-4-fluorobenzamide]
2 | 0.06 nM | CC(C)n1cnc2cc(-c3ccc4c(c3)N([C@H]3C[C@@](C)(N5CCCCC5)C3)C(=O)C43CC3)nc(Nc3cc(C(=O)NCC(F)F)c(Cl)c(F)c3F)c21 [Example 275, 2-chloro-N-(2,2-difluoroethyl)-3,4-difluoro-5-((3-isopropyl-6-(1′-((1s,3s)-3-methyl-3-(piperidin-1-yl)cyclobutyl)-2′-oxospiro[cyclopropane-1,3′-indolin]-6′-yl)-3H-imidazo[4,5-c]pyridin-4-yl)amino)benzamide]

Same assay, conditions: recombinant HPK1 kinase domain 0.15 nM, 10 μM ATP, 1 μM STK S1 peptide; geometric mean of multiple experiments

Row | Compound | IC50
3 | CC(C)n1cnc2cc(-c3cnc4c(c3)N([C@H]3C[C@@](C)(N5CCCCCC5)C3)C(=O)C4(C)C)nc(Nc3cc(C(=O)NC4(C(F)F)CC4)c(Cl)c(F)c3F)c21 [Example 226, 5-((6-(1-((1s,3s)-3-(Azepan-1-yl)-3-methylcyclobutyl)-3,3-dimethyl-2-oxo-2,3-dihydro-1H-pyrrolo[3,2-b]pyridin-6-yl)-3-isopropyl-3H-imidazo[4,5-c]pyridin-4-yl)amino)-2-chloro-N-(1-(difluoromethyl)cyclopropyl)-3,4-difluorobenzamide] | 0.1 nM
4 | Cc1c(C(=O)NC2(C(F)F)CC2)cc(Nc2nc(-c3cnc4c(c3)N(C3CC(C)(N5CCC6C[C@@H]6C5)C3)C(=O)C4(C)C)cc3ncn(C(C)C)c23)c(F)c1F (stereo partly shown) [Example 232, 5-((6-(1-((1s,3s)-3-(3-azabicyclo[4.1.0]heptan-3-yl)-3-methylcyclobutyl)-3,3-dimethyl-2-oxo-2,3-dihydro-1H-pyrrolo[3,2-b]pyridin-6-yl)-3-isopropyl-3H-imidazo[4,5-c]pyridin-4-yl)amino)-N-(1-(difluoromethyl)cyclopropyl)-3,4-difluoro-2-methylbenzamide] | 0.09 nM
5 | Cc1ccc(Nc2nc(-c3ccc4c(c3)N([C@H]3C[C@@H](N5CCCCC5)C3)C(=O)C4(C)C)cc3ncn(C(C)C)c23)cc1C(=O)N[C@H](C)CF [Example 30] | 0.1 nM
6 | CC(C)n1cnc2cc(-c3ccc4c(c3)N([C@H]3C[C@@](C)(N5CCCCC5)C3)C(=O)C4(C)C)nc(Nc3cc(C(=O)NC4(C(F)F)CC4)ccc3F)c21 [Example 238, N-(1-(Difluoromethyl)cyclopropyl)-3-((6-(3,3-dimethyl-1-((1s,3s)-3-methyl-3-(piperidin-1-yl)cyclobutyl)-2-oxoindolin-6-yl)-3-isopropyl-3H-imidazo[4,5-c]pyridin-4-yl)amino)-4-fluorobenzamide] | 0.02 nM
7 | CC(C)n1cnc2cc(-c3cnc4c(c3)N([C@H]3C[C@@](C)(N5CCCCC5)C3)C(=O)C4(C)C)nc(Nc3cc(C(=O)NC4(C(F)F)CC4)cc(F)c3F)c21 [Example 242, N-(1-(difluoromethyl)cyclopropyl)-3-((6-(3,3-dimethyl-1-((1s,3s)-3-methyl-3-(piperidin-1-yl)cyclobutyl)-2-oxo-2,3-dihydro-1H-pyrrolo[3,2-b]pyridin-6-yl)-3-isopropyl-3H-imidazo[4,5-c]pyridin-4-yl)amino)-4,5-difluorobenzamide] | 0.07 nM
8 | CCNC(=O)c1cc(Nc2nc(-c3ccc4c(c3)N([C@H]3C[C@@H](N5CCC[C@@H](F)C5)C3)C(=O)C43CCN(C4COC4)CC3)cc3ncn(C(C)C)c23)c(F)cc1C [Example 171] | 0.2 nM
9 | Cc1c(C(=O)NC2(C(F)F)CC2)cc(Nc2nc(-c3cnc4c(c3)N(C3CC(C)(N5CCC6C[C@H]5CO6)C3)C(=O)C4(C)C)cc3ncn(C(C)C)c23)c(F)c1F (stereo partly shown) [Example 191, 5-((6-(1-((1s,3s)-3-(6-oxa-2-azabicyclo[3.2.1]octan-2-yl)-3-methylcyclobutyl)-3,3-dimethyl-2-oxo-2,3-dihydro-1H-pyrrolo[3,2-b]pyridin-6-yl)-3-isopropyl-3H-imidazo[4,5-c]pyridin-4-yl)amino)-N-(1-(difluoromethyl)cyclopropyl)-3,4-difluoro-2-methylbenzamide] | 0.09 nM
10 | CNC(=O)c1cc(Nc2nc(-c3ccc4c(c3)N([C@H]3C[C@@H](N5CC[C@H](F)C5)C3)C(=O)C43CCN(C4COC4)CC3)cc3ncn(C(C)C)c23)c(F)cc1C [Example 72] | 0.2 nM

More lines, now with the values ahead:

Row | IC50 | Compound
11 | 0.2 nM | CCNC(=O)c1cc(Nc2nc(-c3ccc4c(c3)N([C@H]3C[C@@H](N5CCCCC5)C3)C(=O)C43CCN(C(C)=O)CC3)cc3ncn(C(C)C)c23)c(F)cc1C [Example 74]
12 | 0.1 nM | CNC(=O)c1cc(Nc2nc(-c3ccc4c(c3)N([C@H]3C[C@@H](N5CCCCC5)C3)C(=O)C43CCN(C(=O)C4COC4)CC3)cc3ncn(C4CC4)c23)ccc1C [Example 153]
13 | 0.1 nM | CNC(=O)c1cc(Nc2nc(-c3ccc4c(c3)N([C@H]3C[C@@H](N5CCOCC5)C3)C(=O)C4(C)C)cc3ncn(C(C)C)c23)ccc1C [Example 39]
14 | 0.05 nM | CC(C)n1cnc2cc(-c3ccc4c(c3)N([C@H]3C[C@@H](N5CCCCC5)C3)C(=O)C4(C)C)nc(Nc3cc(C(=O)NC4(C(F)F)CC4)c(Cl)c(F)c3F)c21 [Example 244, 2-chloro-N-(1-(difluoromethyl)cyclopropyl)-5-((6-(3,3-dimethyl-2-oxo-1-((1s,3s)-3-(piperidin-1-yl)cyclobutyl)indolin-6-yl)-3-isopropyl-3H-imidazo[4,5-c]pyridin-4-yl)amino)-3,4-difluorobenzamide]
15 | 0.2 nM | CNC(=O)c1cc(Nc2nc(-c3ccc4c(c3)N([C@H]3C[C@@H](N5CCC(C(F)F)C5)C3)C(=O)C4(C)C)cc3ncn(C(C)C)c23)ccc1C (stereo partly shown) [Example 104, 5-((6-(1-((1s,3s)-3-(3-(difluoromethyl)pyrrolidin-1-yl)cyclobutyl)-3,3-dimethyl-2-oxoindolin-6-yl)-3-isopropyl-3H-imidazo[4,5-c]pyridin-4-yl)amino)-N,2-dimethylbenzamide]
16 | 0.2 nM | CNC(=O)c1cc(Nc2nc(-c3ccc4c(c3)N([C@H]3C[C@@H](N5CCCCC5)C3)C(=O)C4(C)C)cc3ncn(C(C)C)c23)ccc1C1CC1 [Example 142]
17 | 0.3 nM | CCNC(=O)c1cc(Nc2nc(-c3ccc4c(c3)N([C@H]3C[C@@H](N5CCCCC5)C3)C(=O)C43CN(C(C)=O)C3)cc3ncn(C(C)C)c23)c(F)cc1C [Example 178]
18 | 0.1 nM | CC(C)n1cnc2cc(-c3cnc4c(c3)N([C@H]3C[C@@](C)(N5CC[C@@H](F)C5)C3)C(=O)C4(C)C)nc(Nc3cc(C(=O)NC4(C(F)F)CC4)c(Cl)c(F)c3F)c21 [Example 200, 2-Chloro-N-(1-(difluoromethyl)cyclopropyl)-3,4-difluoro-5-((6-(1-((1S,3s)-3-((R)-3-fluoropyrrolidin-1-yl)-3-methylcyclobutyl)-3,3-dimethyl-2-oxo-2,3-dihydro-1H-pyrrolo[3,2-b]pyridin-6-yl)-3-isopropyl-3H-imidazo[4,5-c]pyridin-4-yl)amino)benzamide]
19 | 0.3 nM | Cc1c(C(=O)NC2(C(F)F)CC2)cc(Nc2nc(-c3ccc4c(c3)N([C@H]3C[C@@](C)(N5CCCCC5)C3)CC4(C)C)cc3ncn(C(C)C)c23)c(F)c1F [Example 237, N-(1-(Difluoromethyl)cyclopropyl)-5-((6-(3,3-dimethyl-1-((1s,3s)-3-methyl-3-(piperidin-1-yl)cyclobutyl)indolin-6-yl)-3-isopropyl-3H-imidazo[4,5-c]pyridin-4-yl)amino)-3,4-difluoro-2-methylbenzamide]

— patent US11203591B2, “Substituted 6-azabenzimidazole compounds” (Gilead Sciences, Inc., priority 2018, dated 2021)
